# Square brackets hold non-standard residues; d marks the D form.
# Tests used:
# [1] = tested on: TNBS-treated mice; test: TNBS-induced Inflammatory Bowel Disease (IBD) model; format: in vivo; conditions: intranasal administration together with TNBS
# From the text: Inflammatory Bowel Disease (IBD) was induced in mice by the administration of trinitrobenzenesulphonic acid (TNBS), in 40% EtOH, to the mice. […] The IBD model is described in, for example, Keates et al. (2000) Gastroenterology 119:972–82.
# The administration of EtOH alone (no TNBS) caused no weight loss in the animals. The “untreated” mice were given only the TNBS administration. The aMSH(4-13) mice were given an administration of TNBS, together with an intranasal administration of the aMSH(4-13) analog, which reduced the severity of the TNBS-induced weight loss.
# [2] = tested on: Leptin −/− mice; test: Leptin -/- mouse model of obesity; format: in vivo; conditions: 1 μg daily for three weeks, intranasally, intrarectally or subcutaneously; compared to untreated mice; FIG. 18A
# Method: Leptin −/− mice were used as a model of mammalian obesity to evaluate the effectiveness of an α-MSH analog and an α-MSH encoding nucleic acid to treat the condition. […] Leptin −/− obese mice were administered (either intranasally, intrarectally, or subcutaneously) with 1 μg of the α-MSH(4-13) analog daily for three weeks.
substance,measurement,setting,value
Ac-CEH[dF]RWCKPV-NH2 (cysteine pairing not given here) [α-MSH(4-13) analog],survival of TNBS-treated animals,[1],increased the survival
same,TNBS-induced weight loss,[1]; FIG. 17A,decreased the weight loss
same,weight gain,[2],a decrease in weight gain

# Source: patent US7169603B2, “α-MSH related compounds and methods of use” (MGI Pharma Biologics, Inc., priority 2000, dated 2007)
